Data: patent US12606595B2, “Regentide-041 and composition comprising Regentide-041 for improving skin condition” (NINEBIOPHARM CO., LTD., priority 2020, dated 2026)
Where a SMILES comes first, the peptide text is derived from it.

Target: T1, Neutrophil Elastase (Homo sapiens, UniProt P08246)
T1 construct: purchased Enzo Life Science BML-AK497-001
T1 sequence (P08246 30-267): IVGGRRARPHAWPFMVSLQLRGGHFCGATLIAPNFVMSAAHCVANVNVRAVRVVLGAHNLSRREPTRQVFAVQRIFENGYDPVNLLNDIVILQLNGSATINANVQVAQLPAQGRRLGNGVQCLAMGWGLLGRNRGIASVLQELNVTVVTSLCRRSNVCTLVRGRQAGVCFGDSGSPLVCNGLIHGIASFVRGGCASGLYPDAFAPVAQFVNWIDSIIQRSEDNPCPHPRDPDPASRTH
Assay: Elastase activity inhibitory ability, Neutrophil Elastase colorimetric method
Format: biochemical
Description: In order to confirm the elastase activity inhibitory ability of Regentide-041, it was measured using the Neutrophil Elastase colorimetric method (BML-AK497-001, Enzo Life Science, Pennsylvania, USA). Specifically, after an assay buffer and D.W. were diluted at 1:1, an elastase reagent and a substrate reagent were diluted to have final concentrations of 2.2 μU/μl and 100 μM, respectively. In addition, Regentide-041 was diluted to have final concentrations of 0.1, 1, 10, 50, 100, and 150 μM, respectively. A working solution was prepared by mixing the assay buffer, elastase reagent, and Regentide-041 diluent. […] of the working solution was put in each well of a 96-well plate and reacted at 37° C. for 5 minutes. Next, […] of the substrate reagent was put, and absorbance was measured for 15 minutes at absorbance 405 nm with a Microplate reader (Epoch 2 Microplate spectrophotometer. Biotek, Winooski, VT, USA).

For `CC[C@H](C)[C@H](NC(=O)CNC(=O)CNC(=O)[C@H](CCCNC(=N)N)NC(=O)[C@@H]1CCCN1C(=O)[C@@H](NC(=O)[C@@H](N)CS)[C@@H](C)CC)C(=O)N[C@@H](CS)C(=O)N[C@@H](CC(C)C)C(=O)N[C@H](C(=O)N[C@@H](C)C(=O)N[C@@H](CC(C)C)C(N)=O)C(C)C` [Regentide-041, CIPRGGICLVAL-NH2] (H-CIPRGGICLVAL-NH2), the inhibition at 150 µM was 52.7 ± 1.2%.
